Measured values: patent US20260234165A1, “MACROCYCLIC COMPOUNDS, PREPARATION METHOD THEREFOR, AND USE THEREOF” (GENFLEET THERAPEUTICS (SHANGHAI) INC., priority 2004, published 2026)
Structures can show the parent of a compound that is named as a salt. Where two headings read alike, the source gives them in different places.

Key:
Format in all cases: cell-based, human
[1] = test system: p-ERK in AsPC-1 cells (KRAS G12D mutation); assay: Cell p-ERK assay (HTRF) in AsPC-1 cells; conditions: AsPC-1 cells, 3 h compound incubation, HTRF p-ERK T202/Y204, read-out: AsPC-1 p-ERK IC50
Outline: (§1)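 Cells are plated (AsPC-1 at 10000, NCI-H441 at 20000 per well) and cultured overnight. Next day compound is added in a 3.16-fold dilution series with 0.1% DMSO and left 3 h. After lysis, p-ERK antibodies incubate 4 h before HTRF reading and four-parameter IC50 fitting.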

NCI-H441 cells = assay: 3D cell proliferation assay (CellTiter Glo-3D), NCI-H441; conditions: medium with 2% FBS, read-out: H441 AP IC50
Outline: (§2)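 NCI-H441 ([…] lung) and AsPC-1 (KRAS G12D pancreatic) cells, 800 per well, were seeded in RPMI-1640 with 2% FBS and dosed next day with 3.16-fold compound dilutions (0.1% DMSO). After 5 days at 37 °C, CellTiter-Glo 3D luminescence gave inhibition versus DMSO and blank; IC50 from four-parameter fit.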

[2] = test system: p-ERK in NCI-H441 cells (KRAS G12V mutation); assay: Cell p-ERK assay (HTRF) in NCI-H441 cells; conditions: NCI-H441 cells, 3 h compound incubation, HTRF p-ERK T202/Y204, read-out: H441 p-ERK IC50
Outline: as §1

[3] = test system: AsPC-1 cells (KRAS G12D mutation); assay: 3D cell proliferation assay (CellTiter Glo-3D), AsPC-1; conditions: medium with 2% FBS, read-out: AsPC-1 AP IC50
Outline: as §2

[4] = Homo sapiens, NCI-H441, 3D cell proliferation (CellTiter Glo-3D)
[5] = Homo sapiens, ASPC1, 3D cell proliferation (CellTiter Glo-3D)
[6] = 3D cell proliferation (CellTiter Glo-3D)

Compound | IC50 ([1]; Homo sapiens, ASPC1, 3 h) | IC50 (NCI-H441 cells; [4]) | IC50 ([2]; Homo sapiens, NCI-H441, 3 h) | IC50 [3, 5] | IC50 [1] | IC50 [2] | IC50 (NCI-H441 cells; [6]) | IC50 [3, 6]
CCn1c(-c2cc(OCC34CCCN3CCC4)cnc2[C@H](C)OC)c2c3cc(ccc31)-c1csc(n1)C[C@H](NC(=O)[C@H]1[C@H](C)[C@@H]1C)C(=O)N1CCC[C@H](N1)C(=O)OCC1(CC1)C2 (single isomer, unassigned) [Compound Z339] | 10.8 nM | 7.33 nM | 5.48 nM | 18.3 nM | – | – | – | –
CCn1c(-c2cc(C#CC(=O)N3CCCOCC3)cnc2[C@H](C)OC)c2c3cc(ccc31)-c1csc(n1)C[C@H](NC(=O)[C@H]1[C@H](C)[C@@H]1C)C(=O)N1CCC[C@H](N1)C(=O)OCC(C)(C)C2 (atropisomer, axis not shown; (Ra)) [Compound Z810, (1r,2R,3S)—N-((6^3S,4S,Z)-1^1-ethyl-(Ra)-1-(5-(3-(1,4-oxazepan-4-yl)-3-oxoprop-1-yn-1-yl)-2-((S)-1-methoxyethyl)pyridin-3-yl)-10,10-methyl-5,7-dioxo-6^1,6^2,6^3,6^4,6^5,6^6hexahydro-1^1H-8-oxa-2(4,2)-thiazola-1(5,3)-indola-6(1,3)-pyridazinacycloundecaphane-4-yl)-2,3-dimethylcyclopropane-1-carboxamide] | – | 1.83 nM | – | 3.22 nM | 1.35 nM | 1.65 nM | – | –
CCn1c(-c2cc(C#CCN3CCCOCC3)cnc2[C@H](C)OC)c2c3cc(ccc31)-c1csc(n1)C[C@H](NP1(=O)CC(C)=C(C)C1)C(=O)N1CCC[C@H](N1)C(=O)OCC(C)(C)C2 (atropisomer, axis not shown; (Ra)) [Compound Z1032, (6^3S,4S,Z)—(Ra)-1^2-(5-(3-(1,4-oxazepan-4-yl)prop-1-yn-1-yl)-2-((S)-1-methoxyethyl)pyridin-3-yl)-4-((3,4-dimethyl-1-oxido-2,5-dihydrophosphol-1-yl)amino)-1^1-ethyl-10,10-dimethyl-6^1,6^2,6^3,6^4,6^5,6^6-hexahydro-1^1H-8-oxa-2(4,2)-thiazola-1(5,3)-indola-6(1,3)-pyridazinacycloundecaphane-5,7-dione] | 7.52 nM | 8.14 nM | 2.18 nM | 20.9 nM | – | – | – | –
CCn1c(-c2cc(N3CCN(C)CC3)cnc2[C@H](C)OC)c2c3cc(ccc31)-c1csc(n1)C[C@H](NC1=NCCO1)C(=O)N1CCC[C@H](N1)C(=O)OCC(C)(C)C2 (atropisomer, axis not shown; (Ra)) [Compound Z71, (6^3S,4S,Z)-1^1-ethyl-(Ra)-1^2-(2-((S)-1-methoxyethyl)-5-(4-methylpiperazin-1-yl)pyridin-3-yl)-10,10-dimethyl-4-((4.5-dihydrooxazol-2-yl)amino)-6^1,6^2,6^3,6^4,6^5,6^6-hexahydro-1^1H-8-oxa-2(4,2)-thiazola-1(5,3)-indola-6(1,3)-pyridazinacycloundecaphane-5,7-dione formate] | 96.4 nM | 149 nM | 41.7 nM | 302 nM | – | – | – | –
CCn1c(-c2cc(OCCN3CCOC4(CC4)C3)cnc2[C@H](C)OC)c2c3cc(ccc31)-c1csc(n1)C[C@H](NC(=O)[C@H]1[C@H](C)[C@@H]1C)C(=O)N1CCC[C@H](N1)C(=O)OCC(C)(C)C2 [Compound Z83, (1r,2R,3S)—N-((6^3R,4R,Z)-1^2-(5-(2-(4-oxa-7-azaspiro[2,5]octan-7-yl)ethoxy)-2-((S)-1-methoxyethyl)pyridin-3-yl)-1′-ethyl-10,10-dimethyl-5,7-dioxo-6^1,6^2,6^3,6^4,6^5,6^6-hexahydro-1^1H-8-oxa-2(4,2)-thiazola-1(5,3)-indola-6(1,3)-pyridazinacycloundecaphane-4-yl)-2,3-dimethylcyclopropane-1-carboxamide] | – | – | – | – | 0.43 nM | 0.75 nM | 0.48 nM | 0.77 nM
CCn1c(-c2cc(C#CCN3CCOC4(CC4)C3)cnc2[C@H](C)OC)c2c3cc(ccc31)-c1csc(n1)C[C@H](NC(=O)[C@H]1[C@H](C)[C@@H]1C)C(=O)N1CCC[C@H](N1)C(=O)OCC(C)(C)C2 [Compound Z369-1, (1r,2R,3S)—N-((6^3S,4S,Z)-1^2-(5-(3-(4-oxa-7-azaspiro[2.5]octan-7-yl)prop-1-yn-1-yl)-2-((S)-1-methoxyethyl)pyridin-3-yl)-1^1-ethyl-10,10-dimethyl-5,7-dioxo-6^1,6^2,6^3,6^4,6^5,6^6-hexahydro-1^1H-8-oxa-2(4,2)-thiazola-1(5,3)-indola-6(1,3)-pyridazinacycloundecaphane-4-yl)-2,3-dimethylcyclopropane-1-carboxamide formate] | 0.12 nM | 0.21 nM | 0.16 nM | 0.14 nM | – | – | – | –
CCn1c(-c2cc(C#CC(C)N3CCC3)cnc2[C@H](C)OC)c2c3cc(ccc31)-c1csc(n1)C[C@H](NC(=O)[C@H]1[C@H](C)[C@@H]1C)C(=O)N1CCC[C@H](N1)C(=O)OCC(C)(C)C2 (atropisomer, axis not shown; (Sa)) [Compound Z613-2, (1r,2R,3S)—N-((6^3S,4S,Z)-12-(5-(3-(azetidin-1-yl)but-1-yn-1-yl)-(Sa)-2-((S)-1-methoxyethyl)pyridin-3-yl)-4′-ethyl-10,10-dimethyl-5,7-dioxo-6^1,6^2,6^3,6^4,6^5,6^6-hexahydro-1^1H-8-oxa-2(4,2)-thiazola-(5,3)-indola-6(1,3)-pyridazinacycloundecaphane-4-yl)-2.3-dimethylcyclopropane-1-carboxamide] | 0.68 nM | 0.7 nM | 0.34 nM | 0.79 nM | – | – | – | –
CCn1c(-c2cc(OCC3(N4CCCOCC4)CC3)cnc2[C@H](C)OC)c2c3cc(ccc31)-c1csc(n1)C[C@H](NC(=O)[C@H]1[C@H](C)[C@@H]1C)C(=O)N1CCC[C@H](N1)C(=O)OCC1(CC1)C2 [Compound Z329, (1r,2R,3S)—N-((3′S,4′S,Z)-2′-(5-((1-(1,4-oxazepan-4-yl)cyclopropyl)methoxy)-2-((S)-1-methoxyethyl)pyridin-3-yl)-1′-ethyl-5′,7′-dioxospiro[cyclopropane-1,10′-8-oxa-2(4,2)-thiazola-1(5,3)-indola-6(1,3)-pyridazinacycloundecaphan]-4′-yl)-2,3-dimethylcyclopropane-1-carboxamide] | – | – | – | – | 15.7 nM | 8.74 nM | 23.1 nM | 51.9 nM
C=C1CCN2CCN(c3cnc([C@H](C)OC)c(-c4c5c6cc(ccc6n4CC)-c4csc(n4)C[C@H](NC(=O)[C@H]4[C@H](C)[C@@H]4C)C(=O)N4CCC[C@H](N4)C(=O)OCC(C)(C)C5)c3)C[C@H]2C1 (atropisomer, axis not shown; (Ra)) [Compound Z309, (1r,2R,3S)—N-((6^3S,4S,Z)-1^1-ethyl-(Ra)-1^2-(2-((S)-1-methoxyethyl)-5-((R)-8-methyleneoctahydro-2H-pyrido[1,2-a]pyrazin-2-yl)pyridin-3-yl)-10,10-dimethyl-5,7-dioxo-6^1,6^2,6^3,6^4,6^5,6^6-hexahydro-1^1H-8-oxa-2(4,2)-thiazola-1(5,3)-indola-6(1,3)-pyridazinacycloundecaphane-4-yl)-2,3-dimethylcyclopropane-1-carboxamide] | – | 0.62 nM | – | 2.09 nM | 0.38 nM | 0.96 nM | – | –
CCn1c(-c2cc(C#CCN3CCN(C)S(=O)(=O)CC3)cnc2[C@H](C)OC)c2c3cc(ccc31)-c1csc(n1)C[C@H](NC(=O)[C@H]1[C@H](C)[C@@H]1C)C(=O)N1CCC[C@H](N1)C(=O)OCC(C)(C)C2 [Compound Z847, (1r,2R,3S)—N-((6^3S,4S,Z)—1′-ethyl-(2-((S)-1-methoxyethyl)-5-(3-(2-methyl-1,1-dioxido-1,2,5-thiadiazepan-5-yl)prop-1-yn-1-yl)pyridin-3-yl)-10,10-dimethyl-5,7-dioxo-6^1,6^2,6^3,6^4,6^5,6^6-hexahydro-1^1H-8-oxa-2(4,2)-thiazola-1(5,3)-indola-6(1,3)-pyridazinacycloundecaphane-4-yl)-2,3-dimethylcyclopropane-1-carboxamide] | 0.11 nM | 0.29 nM | 0.13 nM | 0.13 nM | – | – | – | –
CCn1c(-c2cc(OCCN3CCS(=O)(=O)CC3)cnc2[C@H](C)OC)c2c3cc(ccc31)-c1csc(n1)C[C@H](NC(=O)[C@H]1[C@H](C)[C@@H]1C)C(=O)N1CCC[C@H](N1)C(=O)OCC(C)(C)C2 (atropisomer, axis not shown; (Ra)) [Compound Z469, (0r,2R,3S)—N-((6^3S,4S,Z)—(Ra)-1^2-(5-(2-(1,1-dioxidothiomorpholino)ethoxy)-2-((S)-1-methoxyethyl)pyridin-3-yl)-1^1-ethyl-10,10-dimethyl-5,7-dioxo-6^1,6^2,6^3,6^4,6^5,6^6-hexahydro-1^1H-8-oxa-2(4,2)-thiazola-1(5,3)-indola-6(1,3)-pyridazinacycloundecaphane-4-yl)-2,3-dimethylcyclopropane-1-carboxamide] | – | 0.09 nM | – | 0.24 nM | 0.11 nM | 0.35 nM | – | –
